Experimental data from the supplement of paper PMC10307832.

Key:
Assay in all cases: relative viability (nuclei count vs DMSO), 5 days (fraction); higher = more cells survive
Erlotinib + Bortezomib = compound: C#Cc1cccc(Nc2ncnc3cc(OCCOC)c(OCCOC)cc23)c1 [Erlotinib] + CC(C)C[C@H](NC(=O)[C@H](Cc1ccccc1)NC(=O)c1cnccn1)B(O)O [Bortezomib] (partner 0.002 µM)
Procedure, shortened: (§1)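 Five library-drug doses in √10 steps were combined with a fixed anchor-drug dose, or a single drug was given alone, by pin tool to lung cancer cell lines in 1536-well plates the day after seeding. Nuclei were stained and counted after 5 days. Relative viability is the nuclei count in treated wells over that in vehicle wells, taken as the median of duplicate plates.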

AT9283 + Pemetrexed = compound: O=C(Nc1c[nH]nc1-c1nc2ccc(CN3CCOCC3)cc2[nH]1)NC1CC1 [AT9283] + Nc1nc2[nH]cc(CCc3ccc(C(=O)N[C@@H](CCC(=O)O)C(=O)O)cc3)c2c(=O)[nH]1 [Pemetrexed] (partner 0.2 µM)
Procedure, shortened: as §1

AT9283 + Olaparib = compound: O=C(Nc1c[nH]nc1-c1nc2ccc(CN3CCOCC3)cc2[nH]1)NC1CC1 [AT9283] + O=C(c1cc(Cc2n[nH]c(=O)c3ccccc23)ccc1F)N1CCN(C(=O)C2CC2)CC1 [Olaparib] (partner 8 µM)
Procedure, shortened: as §1

AT9283 + Linsitinib = compound: O=C(Nc1c[nH]nc1-c1nc2ccc(CN3CCOCC3)cc2[nH]1)NC1CC1 [AT9283] + C[C@]1(O)C[C@@H](c2nc(-c3ccc4ccc(-c5ccccc5)nc4c3)c3c(N)nccn32)C1 [Linsitinib] (partner 1 µM)
Procedure, shortened: as §1

Erlotinib + Tozasertib = compound: C#Cc1cccc(Nc2ncnc3cc(OCCOC)c(OCCOC)cc23)c1 [Erlotinib] + Cc1cc(Nc2cc(N3CCN(C)CC3)nc(Sc3ccc(NC(=O)C4CC4)cc3)n2)n[nH]1 [Tozasertib] (partner 0.1 µM)
Procedure, shortened: as §1

Row | Cell Line | relative viability (Erlotinib + Bortezomib; first compound 0.02 µM) | relative viability (Erlotinib + Bortezomib; first compound 0.2 µM) | relative viability (Erlotinib + Bortezomib; first compound 0.6325 µM) | relative viability (Erlotinib + Bortezomib; first compound 2 µM) | relative viability (AT9283 + Pemetrexed; first compound 0.003 µM) | relative viability (AT9283 + Pemetrexed; first compound 0.03 µM) | relative viability (AT9283 + Pemetrexed; first compound 0.09487 µM) | relative viability (AT9283 + Pemetrexed; first compound 0.3 µM) | relative viability (AT9283 + Olaparib; first compound 0.003 µM) | relative viability (AT9283 + Olaparib; first compound 0.03 µM) | relative viability (AT9283 + Olaparib; first compound 0.09487 µM) | relative viability (AT9283 + Olaparib; first compound 0.3 µM) | relative viability (AT9283 + Linsitinib; first compound 0.003 µM) | relative viability (AT9283 + Linsitinib; first compound 0.03 µM) | relative viability (AT9283 + Linsitinib; first compound 0.09487 µM) | relative viability (AT9283 + Linsitinib; first compound 0.3 µM) | relative viability (Erlotinib + Tozasertib; first compound 0.02 µM) | relative viability (Erlotinib + Tozasertib; first compound 0.2 µM) | relative viability (Erlotinib + Tozasertib; first compound 0.6325 µM) | relative viability (Erlotinib + Tozasertib; first compound 2 µM)
1 | HCC-78 | 0.452 | 0.333 | 0.496 | 0.302 | 0.905 | 0.896 | 0.924 | 0.919 | 0.909 | 0.599 | 0.273 | 0.249 | 0.475 | 0.41 | 0.172 | 0.185 | 0.407 | 0.289 | 0.385 | 0.402
2 | RERF-LC-KJ | 1.04 | 1.01 | 0.854 | 0.762 | 0.465 | 0.36 | 0.253 | 0.225 | 0.962 | 0.485 | 0.267 | 0.237 | 0.995 | 0.508 | 0.264 | 0.208 | 0.55 | 0.53 | 0.44 | 0.381
3 | NCI-H1915 | 0.982 | 0.989 | 1.05 | 0.992 | 0.547 | 0.431 | 0.326 | 0.254 | 0.266 | 0.228 | 0.17 | 0.143 | 1.06 | 1.01 | 0.529 | 0.239 | 0.45 | 0.405 | 0.408 | 0.262
4 | NCI-H1666 | 0.864 | 0.74 | 0.766 | 0.615 | 0.775 | 0.818 | 0.718 | 0.612 | 0.739 | 0.724 | 0.608 | 0.533 | 0.964 | 0.779 | 0.265 | 0.355 | 0.551 | 0.523 | 0.498 | 0.482
5 | NCI-H322M | 1.21 | 1.17 | 1.12 | 0.57 | 0.605 | 0.438 | 0.443 | 0.482 | 0.834 | 0.58 | 0.518 | 0.453 | 0.932 | 0.682 | 0.478 | 0.425 | 0.42 | 0.374 | 0.331 | 0.314
6 | LC-2-ad | 1.02 | 1.02 |  | 0.868 | 0.258 | 0.253 | 0.219 | 0.164 | 0.708 | 0.647 | 0.304 | 0.196 | 0.847 | 0.257 | 0.116 | 0.112 | 0.484 | 0.383 | 0.414 | 0.345
7 | LCLC-103H | 1.16 | 1.2 | 1.1 | 0.992 | 0.447 | 0.411 | 0.343 | 0.324 | 0.77 | 0.784 | 0.467 | 0.37 | 0.952 | 1.04 | 1.07 | 0.419 | 0.434 | 0.48 | 0.595 | 0.313
8 | NCI-H661 | 0.887 | 0.555 | 0.881 | 0.646 | 0.932 | 0.449 | 0.405 | 0.385 | 0.759 | 0.499 | 0.371 | 0.418 | 0.513 | 0.474 | 0.252 | 0.295 | 0.344 | 0.381 | 0.341 | 0.394
9 | HCC-827 | 0.526 | 0.343 | 0.276 | 0.35 | 0.281 | 0.247 | 0.236 | 0.207 | 0.702 | 0.53 | 0.344 | 0.255 | 0.995 | 0.843 | 0.463 | 0.371 | 0.223 | 0.114 | 0.101 | 0.126
10 | NCI-H2023 | 0.949 | 0.816 | 1.14 | 0.789 | 0.214 | 0.199 | 0.126 | 0.102 | 0.511 | 0.409 | 0.21 | 0.0856 | 0.765 | 0.308 | 0.135 | 0.132 | 0.365 | 0.241 | 0.165 | 0.188
